Data: the NIST ThermoML archive (doi:10.1021/je7004006)
± gives the expanded uncertainty stated by the source.

Assay: molar heat capacity at constant pressure
Conditions: 101.33 kPa, Crystal, Small (less than 1 g) adiabatic calorimetry

O=C([O-])c1cccnc1.O=C([O-])c1cccnc1.O=C([O-])c1cccnc1.[Cr+3] [chromium nicotinate]
Conditions	molar heat capacity at constant pressure [J/K/mol]
78.3 K	123.81 ± 0.9
79.58 K	125.36 ± 0.91
80.78 K	127.92 ± 0.93
83.27 K	130.33 ± 0.95
85.75 K	132.64 ± 0.96
87.67 K	134.61 ± 0.98
88.87 K	136.08 ± 0.99
90.15 K	137.63 ± 0.98
92 K	139.67 ± 1
93.27 K	141.41 ± 1
94.62 K	142.98 ± 1
95.9 K	144.85 ± 1
97.32 K	146.89 ± 1
98.81 K	148.83 ± 1.1
100.39 K	151.39 ± 1.1
102.33 K	154.15 ± 1.1
104.42 K	157.04 ± 1.1
106.52 K	159.91 ± 1.1
108.56 K	162.72 ± 1.1
110.57 K	165.32 ± 1.2
112.55 K	168.16 ± 1.2
114.51 K	171.37 ± 1.2
116.44 K	174.23 ± 1.2
118.51 K	177.09 ± 1.2
120.7 K	180.42 ± 1.3
122.86 K	183.21 ± 1.3
125 K	186.13 ± 1.3
127.12 K	189.86 ± 1.3
129.2 K	192.42 ± 1.3
131.27 K	194.83 ± 1.4
133.29 K	197.19 ± 1.4
135.34 K	199.39 ± 1.4
137.35 K	202.21 ± 1.4
139.34 K	205.13 ± 1.4
141.27 K	208.55 ± 1.4
143.29 K	211.67 ± 1.5
145.18 K	214.31 ± 1.5
147.24 K	217.25 ± 1.5
149.26 K	220.52 ± 1.5
151.28 K	222.96 ± 1.5
153.41 K	226.31 ± 1.6
155.54 K	229.13 ± 1.6
157.62 K	231.64 ± 1.6
159.7 K	235.03 ± 1.6
161.75 K	238.11 ± 1.6
163.85 K	240.81 ± 1.7
165.85 K	243.11 ± 1.7
167.87 K	246.05 ± 1.7
169.89 K	248.77 ± 1.7
171.91 K	251.87 ± 1.7
173.84 K	254.46 ± 1.8
175.86 K	257.44 ± 1.8
177.79 K	260.13 ± 1.8
179.73 K	262.72 ± 1.8
181.66 K	265.17 ± 1.8
183.6 K	268.44 ± 1.9
185.62 K	271.07 ± 1.9
187.71 K	274.19 ± 1.9
189.73 K	277.14 ± 1.9
191.82 K	280.35 ± 1.9
193.92 K	283.85 ± 1.9
196.02 K	286.68 ± 2
198.11 K	289.66 ± 2
200.29 K	293.01 ± 2
202.31 K	295.75 ± 2
204.32 K	298.67 ± 2
206.42 K	301.71 ± 2.1
208.43 K	304.98 ± 2.1
210.45 K	308.04 ± 2.1
212.47 K	310.72 ± 2.1
214.4 K	313.38 ± 2.1
216.42 K	316.97 ± 2.2
218.35 K	320.03 ± 2.2
220.29 K	324.12 ± 2.2
222.3 K	325.43 ± 2.2
224.24 K	328.85 ± 2.2
226.09 K	332.72 ± 2.3
228.83 K	337.34 ± 2.3
231.74 K	341.35 ± 2.3
234.72 K	345.07 ± 2.4
237.78 K	349.99 ± 2.4
241.01 K	354.61 ± 2.4
244.07 K	360.78 ± 2.5
247.13 K	364.57 ± 2.5
250.28 K	369.63 ± 2.5
253.26 K	373.95 ± 2.5
256.33 K	378.71 ± 2.6
259.39 K	383.32 ± 2.6
262.45 K	388.08 ± 2.6
265.52 K	392.41 ± 2.7
268.5 K	397.46 ± 2.7
271.49 K	402.07 ± 2.7
274.55 K	406.39 ± 2.8
277.77 K	410.55 ± 2.8
280.84 K	415.32 ± 2.8
283.98 K	420.08 ± 2.9
287.05 K	425.14 ± 2.9
290.11 K	429.31 ± 2.9
293.25 K	432.73 ± 2.9
296.24 K	436.89 ± 3
299.14 K	441.06 ± 3
302.2 K	445.38 ± 3
305.27 K	449.99 ± 3
308.25 K	453.86 ± 3.1
311.39 K	458.92 ± 3.1
314.62 K	464.13 ± 3.1
317.68 K	468.44 ± 3.2
320.91 K	472.31 ± 3.2
324.13 K	476.78 ± 3.2
327.12 K	480.35 ± 3.2
329.78 K	484.81 ± 3.3
332.44 K	488.54 ± 3.3
335.1 K	492.26 ± 3.3
337.84 K	495.98 ± 3.4
340.5 K	499.71 ± 3.4
343.24 K	503.86 ± 3.4
346.06 K	507.44 ± 3.4
348.97 K	511.45 ± 3.5
351.79 K	514.88 ± 3.5
354.53 K	518.75 ± 3.5
357.43 K	523.81 ± 3.5
360.34 K	528.42 ± 3.6
363 K	532.73 ± 3.6
365.9 K	536.45 ± 3.6
368.64 K	539.88 ± 3.6
371.37 K	543.64 ± 3.7
374.08 K	547.89 ± 3.7
376.98 K	552.51 ± 3.7
379.69 K	556.21 ± 3.8
382.38 K	559.42 ± 3.8
385.12 K	562.83 ± 3.8
387.85 K	566.51 ± 3.8
390.52 K	569.91 ± 3.8
